Test results published in patent US6960574B2, “Antagonists of RF-amide neuropeptides” (University of Florida, priority 2002, dated 2005).
Peptide text beside a SMILES is read from it. * marks the point of attachment. Dansyl = CN(C)c1cccc2c(S(=O)(=O)*)cccc12

system: receptor labeled by the radioiodinated analogue of 1 (4, [125I]-YLFQPQRF-NH2); neuropeptide FF receptor; assay: Competitive radioligand binding against 4 ([125I]Y8F-amide); conditions: mixture-based positional scanning; difference from averaged radioligand displacement of whole library (0); about 80 a.u. = 10-fold change in Ki

Row | Compound | Relative Binding Index (RBI) [a.u.]
1 | C[C@@H](O)[C@H](NS(=O)(=O)c1cccc2c(N(C)C)cccc12)C(=O)N[C@@H](Cc1ccc(O)cc1)C(=O)N[C@@H](CCCNC(=N)N)C(N)=O [Dansyl-TYR-amide] (Dansyl-Thr-Tyr-Arg-NH2) | −10
2 | CN(C)c1cccc2c(S(=O)(=O)N[C@@H](Cc3c[nH]c4ccccc34)C(=O)N[C@@H](Cc3ccccc3)C(=O)N[C@@H](CCCNC(=N)N)C(N)=O)cccc12 [Dansyl-WFR-amide] | 7
3 | CC[C@H](C)[C@H](NC(=O)[C@H](CC(C)C)NS(=O)(=O)c1cccc2c(N(C)C)cccc12)C(=O)N[C@@H](CCCNC(=N)N)C(N)=O [Dansyl-LIR-amide] (Dansyl-Leu-Ile-Arg-NH2) | −26
4 | CSCC[C@H](NC(=O)[C@H](CCC(N)=O)NS(=O)(=O)c1cccc2c(N(C)C)cccc12)C(=O)N[C@@H](CCCNC(=N)N)C(N)=O [Dansyl-QMR-amide] (Dansyl-Gln-Met-Arg-NH2) | 21
5 | CN(C)c1cccc2c(S(=O)(=O)N[C@@H](CO)C(=O)N[C@@H](CO)C(=O)N[C@@H](CCCNC(=N)N)C(N)=O)cccc12 [Dansyl-SSR-amide] (Dansyl-Ser-Ser-Arg-NH2) | 37
6 | C[C@H](NC(=O)[C@H](CC(N)=O)NS(=O)(=O)c1cccc2c(N(C)C)cccc12)C(=O)N[C@@H](CCCNC(=N)N)C(N)=O [Dansyl-NAR-amide] (Dansyl-Asn-Ala-Arg-NH2) | −36
7 | CC[C@H](C)[C@H](NC(=O)[C@H](CO)NS(=O)(=O)c1cccc2c(N(C)C)cccc12)C(=O)N[C@@H](CCCNC(=N)N)C(N)=O [Dansyl-SIR-amide] (Dansyl-Ser-Ile-Arg-NH2) | 23
8 | CN(C)c1cccc2c(S(=O)(=O)N[C@@H](CC(=O)O)C(=O)N[C@@H](CC(N)=O)C(=O)N[C@@H](CCCNC(=N)N)C(N)=O)cccc12 [Dansyl-DNR-amide] (Dansyl-Asp-Asn-Arg-NH2) | −4
9 | CN(C)c1cccc2c(S(=O)(=O)N[C@@H](CCC(N)=O)C(=O)N[C@@H](CCC(N)=O)C(=O)N[C@@H](CCCNC(=N)N)C(N)=O)cccc12 [Dansyl-QQR-amide, dansyl-Gln-Gln-Arg-NH2] (Dansyl-Gln-Gln-Arg-NH2) | 35
10 | CSCC[C@H](NC(=O)[C@H](CCCNC(=N)N)NS(=O)(=O)c1cccc2c(N(C)C)cccc12)C(=O)N[C@@H](CCCNC(=N)N)C(N)=O [Dansyl-RMR-amide] (Dansyl-Arg-Met-Arg-NH2) | 7
11 | CN(C)c1cccc2c(S(=O)(=O)N[C@@H](CCCNC(=N)N)C(=O)N[C@@H](CCC(N)=O)C(=O)N[C@@H](CCCNC(=N)N)C(N)=O)cccc12 [Dansyl-RQR-amide] (Dansyl-Arg-Gln-Arg-NH2) | 20
12 | CC(C)C[C@H](NS(=O)(=O)c1cccc2c(N(C)C)cccc12)C(=O)N[C@@H](Cc1c[nH]c2ccccc12)C(=O)N[C@@H](CCCNC(=N)N)C(N)=O [Dansyl-LWR-amide] (Dansyl-Leu-Trp-Arg-NH2) | −23
13 | CN(C)c1cccc2c(S(=O)(=O)N[C@@H](Cc3c[nH]c4ccccc34)C(=O)N[C@@H](CO)C(=O)N[C@@H](CCCNC(=N)N)C(N)=O)cccc12 [Dansyl-WSR-amide] (Dansyl-Trp-Ser-Arg-NH2) | 29
14 | CN(C)c1cccc2c(S(=O)(=O)N[C@@H](Cc3cnc[nH]3)C(=O)N[C@@H](Cc3c[nH]c4ccccc34)C(=O)N[C@@H](CCCNC(=N)N)C(N)=O)cccc12 [Dansyl-HWR-amide] (Dansyl-His-Trp-Arg-NH2) | 26
15 | CSCC[C@H](NC(=O)[C@@H](NS(=O)(=O)c1cccc2c(N(C)C)cccc12)C(C)C)C(=O)N[C@@H](CCCNC(=N)N)C(N)=O [Dansyl-VMR-amide] (Dansyl-Val-Met-Arg-NH2) | −4
16 | CN(C)c1cccc2c(S(=O)(=O)N3CCC[C@H]3C(=O)N[C@@H](CCC(=O)O)C(=O)N[C@@H](CCCNC(=N)N)C(N)=O)cccc12 [Dansyl-PER-amide] (Dansyl-Pro-Glu-Arg-NH2) | −48
17 | CN(C)c1cccc2c(S(=O)(=O)NCC(=O)N[C@@H](CC(=O)O)C(=O)N[C@@H](CCCNC(=N)N)C(N)=O)cccc12 [Dansyl-GDR-amide] (Dansyl-Gly-Asp-Arg-NH2) | 7
18 | CC(C)[C@H](NC(=O)[C@@H](NS(=O)(=O)c1cccc2c(N(C)C)cccc12)[C@@H](C)O)C(=O)N[C@@H](CCCNC(=N)N)C(N)=O [Dansyl-TVR-amide] (Dansyl-Thr-Val-Arg-NH2) | −13
19 | CN(C)c1cccc2c(S(=O)(=O)N[C@@H](CCC(N)=O)C(=O)N3CCC[C@H]3C(=O)N[C@@H](CCCNC(=N)N)C(N)=O)cccc12 [Dansyl-QPR-amide] (Dansyl-Gln-Pro-Arg-NH2) | 25
20 | CC(C)C[C@H](NC(=O)[C@@H](NS(=O)(=O)c1cccc2c(N(C)C)cccc12)[C@@H](C)O)C(=O)N[C@@H](CCCNC(=N)N)C(N)=O [Dansyl-TLR-amide] (Dansyl-Thr-Leu-Arg-NH2) | −17
21 | CC(C)[C@H](NC(=O)[C@H](Cc1c[nH]c2ccccc12)NS(=O)(=O)c1cccc2c(N(C)C)cccc12)C(=O)N[C@@H](CCCNC(=N)N)C(N)=O [Dansyl-WVR-amide] (Dansyl-Trp-Val-Arg-NH2) | 4
22 | CSCC[C@H](NC(=O)[C@@H](NS(=O)(=O)c1cccc2c(N(C)C)cccc12)[C@@H](C)O)C(=O)N[C@@H](CCCNC(=N)N)C(N)=O [Dansyl-TMR-amide] (Dansyl-Thr-Met-Arg-NH2) | −9
23 | CSCC[C@H](NC(=O)[C@H](CC(=O)O)NS(=O)(=O)c1cccc2c(N(C)C)cccc12)C(=O)N[C@@H](CCCNC(=N)N)C(N)=O [Dansyl-DMR-amide] (Dansyl-Asp-Met-Arg-NH2) | −6
24 | CN(C)c1cccc2c(S(=O)(=O)N[C@@H](CO)C(=O)N3CCC[C@H]3C(=O)N[C@@H](CCCNC(=N)N)C(N)=O)cccc12 [Dansyl-SPR-amide] (Dansyl-Ser-Pro-Arg-NH2) | 20
25 | CN(C)c1cccc2c(S(=O)(=O)N[C@@H](CCCNC(=N)N)C(=O)N[C@@H](Cc3c[nH]c4ccccc34)C(=O)N[C@@H](CCCNC(=N)N)C(N)=O)cccc12 [Dansyl-RWR-amide] (Dansyl-Arg-Trp-Arg-NH2) | 16
26 | CN(C)c1cccc2c(S(=O)(=O)N[C@@H](CC(N)=O)C(=O)N[C@@H](Cc3ccccc3)C(=O)N[C@@H](CCCNC(=N)N)C(N)=O)cccc12 [Dansyl-NFR-amide] (Dansyl-Asn-Phe-Arg-NH2) | 11
27 | C[C@H](NC(=O)[C@@H]1CCCN1S(=O)(=O)c1cccc2c(N(C)C)cccc12)C(=O)N[C@@H](CCCNC(=N)N)C(N)=O [Dansyl-PAR-amide] (Dansyl-Pro-Ala-Arg-NH2) | −97
28 | CC(C)[C@H](NC(=O)[C@@H]1CCCN1S(=O)(=O)c1cccc2c(N(C)C)cccc12)C(=O)N[C@@H](CCCNC(=N)N)C(N)=O [Dansyl-PVR-amide] (Dansyl-Pro-Val-Arg-NH2) | −53
